Measurements reported in patent publication EP4083217A1, “IN VIVO […] THERAPY FOR THE TREATMENT OF PRIMARY HYP[…] 1” (Centro de Investigaciones Energéticas, Medioambientales y …, priority 2021, dated 2022).

System: HepG2 cells
Assay: Transduction enhancer Cyclosporin H in vitro testing (eGFP positive cells by flow cytometry)
Assay type: cell-based
Procedure: Due to the important relevance of the target tissue origin, HepG2 cells, a hepatic cell line, were used.
Three days after transduction, the percentage of eGFP positive cells was analysed by Flow Cytometry. All conditions were performed as triple experimental replicates.

C/C=C/C[C@@H](C)[C@@H](O)[C@H]1C(=O)N[C@@H](CC)C(=O)N(C)CC(=O)N(C)[C@@H](CC(C)C)C(=O)N[C@@H](C(C)C)C(=O)N(C)[C@@H](CC(C)C)C(=O)N[C@@H](C)C(=O)N[C@H](C)C(=O)N(C)[C@@H](CC(C)C)C(=O)N(C)[C@@H](CC(C)C)C(=O)N(C)[C@H](C(C)C)C(=O)N1C [CsH, Cyclosporin H]
transduction percentage (eGFP positive cells) (HepG2, LV.ET.eGFP.142-3pT MOI 0.3, 4 µM CsH during transduction): 37.67% | percentage of transduced cells (HepG2, LV.ET.eGFP.142-3pT MOI 0.3, 16 µM CsH 16 hours pre-treatment and during transduction): 31.03% | transduction percentage (eGFP positive cells) (HepG2, LV.ET.eGFP.142-3pT MOI 0.3, 16 µM CsH during transduction): 51.5%
